Reference: patent publication US20250376662A1, “FORWARD PROGRAMMED BLOOD-BRAIN BARRIER MODEL” (priority 2024, published 2025)

System: HUVECs
Assay: Gene expression in HUVECs treated with KLF2 lentivirus and CHIR99021
Format: cell-based, human
Protocol: RNA was extracted using Direct-zol RNA Miniprep kit (Zymo, R2050). Reverse transcription was performed to obtain cDNA using GoScript Reverse Transcriptase with Oligo (dT) kit (Promega, A2791). Real-time gene expression analysis was conducted using 25-μl reactions containing SYBR Green PCR Master Mix (Life Technologies, 4309155) along with primers specific for gene of interests (Table 2). PCR was run according to manufacturer protocols on Agilent AriaMX Real-Time PCR system.
Recognizing the strong effect of KLF2 or KLF4 overexpression on BBB gene expression, explored whether activated Wnt signaling impacted the ability of KLF overexpression to modulate BBB gene expression. […] This finding indicates a synergistic effect of these two pathways in inducing BBB gene expression. […] Such shifts in Wnt TF expression have been reported to be correlated with β-catenin levels, and represents higher canonical Wnt activities (Guo et al. 2021). Thus, to further assess the canonical Wnt signaling activation, we used an hPSC Wnt reporter line, H9 7TGP. The engineered 7TGP line expresses GFP under the control of a consensus TCF/LEF binding sequence promoter that reports canonical Wnt/β-catenin signaling activation (Lian et al. 2012; Fuerer and Nusse 2010). […] To assess whether these factors induce BBB gene expression in primary EC, we treated.

For `Cc1c[nH]c(-c2cnc(NCCNc3ccc(C#N)cn3)nc2-c2ccc(Cl)cc2Cl)n1` [CHIR99021], the “expression of Wnt signaling TF transcripts LEF1 and TCF7” value was “significantly increased the expression”.
